Earlier results as cited in US9303023B2, “Pyrazole and imidazole derivatives useful as orexin antagonists” (ACTELION PHARMACEUTICALS LTD., priority 2011, dated 2016).

What was measured:
[1] = in vivo
[2] = rat fear-potentiated startle paradigm
[3] = fasted hungry rats exposed to food odors
[4] = mouse model of depression, administered chronically
amyloid-beta (Aβ) = settings: after acute sleep restriction, amyloid precursor protein transgenic mice
[5] = rat model
[6] = rat

| Compound | activity in animal model related to addictions [1] | activity in conditioned fear model [2] | natural activation induced by orexin A [3] | antidepressant-like activity [4] | brain levels of amyloid-beta (Aβ) and Aβ plaque deposition (amyloid-beta (Aβ)) | memory function [5] | alertness (active wake and locomotion) [6] | time spent in both REM and NREM sleep [6] |
| --- | --- | --- | --- | --- | --- | --- | --- | --- |
| COc1ccc(C[C@H]2c3cc(OC)c(OC)cc3CCN2[C@@H](C(=O)NC(C)C)c2ccccc2)cc1OC [(R)-2-[(S)-1-(3,4-Dimethoxy-benzyl)-6,7-dimethoxy-3,4-dihydro-1H-isoquinolin-2-yl]-N-isopropyl-2-phenyl-acetamide] | active | active |  |  |  |  |  |  |
| CNC(=O)[C@@H](c1ccccc1)N1CCc2cc(OC)c(OC)cc2[C@@H]1CCc1ccc(C(F)(F)F)cc1 [(2R)-2-{(1S)-6,7-dimethoxy-1-[2-(4-trifluoromethyl-phenyl)-ethyl]-3,4-dihydro-1H-isoquinolin-2-yl}-N-methyl-2-phenyl-acetamide] |  | active | attenuate the natural activation induced by orexin A | induce antidepressant-like activity | decreased | enhance memory function | decrease alertness | dose-dependently increase |
